These results are taken from article PMC3782081 (Cell, 2012).

What all share (type): cell-based
Assay [1] deals with T1, UCP1 (uncoupling protein 1) (Mus musculus, UniProt P12242).
T1 sequence (P12242 1-307): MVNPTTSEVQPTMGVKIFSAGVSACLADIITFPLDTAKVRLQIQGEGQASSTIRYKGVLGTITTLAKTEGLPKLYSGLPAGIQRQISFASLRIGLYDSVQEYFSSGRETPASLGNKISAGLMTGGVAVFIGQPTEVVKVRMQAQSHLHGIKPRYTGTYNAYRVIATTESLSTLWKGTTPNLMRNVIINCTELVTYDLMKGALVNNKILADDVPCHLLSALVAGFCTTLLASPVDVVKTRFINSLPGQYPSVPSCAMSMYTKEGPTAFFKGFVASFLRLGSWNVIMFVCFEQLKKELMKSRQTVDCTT
The assay can be described thus: whole-mitoplast patch-clamp, inhibition of IUCP1 reactivated with exogenous OA. As to conditions: read-out: % inhibition at 50 μM.

For assay [2], the target named is T1, UCP1 (uncoupling protein 1). The experiment in a line: whole-mitoplast patch-clamp, inhibition by […] in the bath. As to conditions: read-out: % inhibition at 4 μM. Background: In patch-clamp work, channel activity is measured electrically.
Assay [3] has the same target. The assay can be described thus: whole-mitoplast patch-clamp, inhibition by […] GDP in the bath.

The inhibition is the change of the read-out against control, counted positive when it falls.

Regarding `O=C1NC(=O)/C(=C/c2ccc(C(=O)NC[C@@H]3C[C@@H](SC(c4ccccc4)(c4ccccc4)c4ccccc4)CN3C(=O)c3ccccc3C(=O)c3ccc(F)cc3F)cc2)S1` [pyrrophenone], the inhibition at 50 µM in assay [1] turned out to be 77%.

As for `CCCCCCCC/C=C\CCCCCCCC(=O)SCCNC(=O)CCNC(=O)[C@H](O)C(C)(C)COP(=O)(O)OP(=O)(O)OC[C@H]1O[C@@H](n2cnc3c(N)ncnc32)[C@H](O)[C@@H]1OP(=O)(O)O` [oleoyl-CoA], in assay [2], the inhibition at 4 µM worked out at 92%.

As to `Nc1nc2c(ncn2[C@@H]2O[C@H](COP(=O)(O)OP(=O)(O)O)[C@@H](O)[C@H]2O)c(=O)[nH]1` [GDP], the “whole-mitoplast patch-clamp, inhibition by 1 mM GDP in the bath” value in assay [3] is “elicited a large-amplitude current that was strongly inhibited by the classic UCP1 inhibitor GDP (Figure 1B)”.
